# Experimental data taken from article PMC4028696, “Development of a screen to identify selective small molecules active against patient-derived metastatic and chemoresistant breast cancer cells” (Breast Cancer Research : BCR, 2013).
# What was measured:
# MCF-7 cells = assay: AAF-Glo released protease (cell death) assay; type: cell-based, human; conditions: MCF-7, 30 μM, 24 to 120 hours, vs DMSO
# Description: (§1) Adherent cells were seeded in two identical white 96-well plates (Costar) in 100 μL of their respective media at varying densities to achieve 80% to 90% confluency at the end of the assay. After 24 hours, the media were aspirated and the cells were treated with 30 μM C-6 or a matched 0.03% (v/v) DMSO vehicle control in the corresponding media containing 2% FBS. For suspension cultures, cells were first seeded in 75 μL of media. At the start of treatment, 25 μL of a 4× concentration of C-6 or a matched (v/v) DMSO vehicle control was added to each well such that the final volume in each well was 100 μL and the final concentration of C-6 was 30 μM. For the caspase activity assays, additional wells were treated with 1 μM staurosporine. After culturing for the appropriate amount of time, either the AAF-Glo or Caspase-Glo assays (Promega, Madison, WI, USA) were performed on one 96-well plate according to the manufacturer's instructions. For the Caspase-Glo assay, cell viability was determined for the additional 96-well plate utilizing the ATPlite 1step assay system (Perkin Elmer) according to the manufacturer's instructions. For the AAF-Glo assay, the total protein in each well of the additional plate was measured using the BCA protein assay kit (Peirce, Rockford, IL, USA). Luminescence measurements were acquired utilizing a Perkin Elmer 2104 EnVision plate reader. Raw luminescence values for each assay were normalized to the DMSO vehicle control wells. The values for the Caspase-Glo or AAF-Glo assays were then normalized to the ATPlite values or total protein, respectively, in order to account for differences in cell numbers and were plotted as an average ± SD of four wells per condition.
# MCF-10A cells = assay: AAF-Glo released protease (cell death) assay; type: cell-based, human; conditions: 30 μM, 24 to 120 hours, vs DMSO
# Description: as §1
# MDA-MB-231 cells = assay: AAF-Glo released protease (cell death) assay; type: cell-based, human; conditions: MDA-MB-231, 30 μM, 24 to 120 hours
# Description: as §1
# PE1008032 cells = assay: AAF-Glo released protease (cell death) assay; type: cell-based, human; conditions: PE1008032, 30 μM, 24 to 120 hours
# Description: as §1
# [1] = tested on: PE cells from three different patients; assay: AAF-Glo released protease (cell death) assay; type: cell-based, human; conditions: 30 μM, 24 to 120 hours, vs DMSO
# Description: as §1
# [2] = Chemical screen, difference in ATP viability between normal and tumor cells; type: cell-based; conditions: human, four days, duplicate, read-out: difference in viability between the hTERT-HMEC and PE1007070 cells (selectivity)
# Description: The hTERT-HMEC and PE1007070 cells were seeded in white 96-well plates (Costar) in 100 μL of modified M87 media at varying densities to achieve 80% to 90% confluency at the end of the assay. The 10 mM DMSO stock solutions from the 560-compound University of Utah Department of Chemistry library were diluted with modified M87 media utilizing an EP Motion 5075 (Eppendorf North America) liquid handler. In addition, corresponding DMSO vehicle and doxorubicin controls were prepared in modified M87 media. After the cells were cultured for 24 hours, 80 μL of media was aspirated from each well. […] After four days of treatment, viability was determined utilizing the ATPlite 1step assay system (Perkin Elmer) according to the manufacturer's instructions. Luminescence measurements were acquired utilizing a Perkin Elmer 2104 EnVision plate reader. Raw luminescence values were normalized to the DMSO vehicle control wells for each plate and cell type. […]
# Reagent/ compound dispensing system Eppendorf EP Motion 5075 (Compound dilution) Detection instrument and software Luminescence was detected with a Perkin Elmer Envision 2104 Assay validation/QC 20 µM Doxorubicin was used as a positive control and used to […]
# Additional comments Selectivity of compounds was determined by subtracting the average viability of the PE1007070 from the hTERT-HMEC cells […]
# caspase-3/7, -8 or -9 = assay: Caspase-Glo caspase activity assay; type: cell-based, human; conditions: 30 μM, 24 or 48 hours, normalized to ATP viability
# Description: as §1, with “After culturing for the appropriate amount of time, either the AAF-Glo or Caspase-Glo assays (Promega, Madison, WI, USA) were performed on one 96-well plate according to the manufacturer's instructions.” left out, “The values for the Caspase-Glo or AAF-Glo assays were then normalized to the ATPlite values or total protein, respectively, in order to account for differences in cell numbers and were plotted as an average ± SD of four wells per condition.” left out
structure (smiles),measurement,setting,value
COc1cc(OC)cc(C(C)c2ccc(NC(=O)OC(C)(C)C)cc2)c1 (stereo not shown) [C-6],relative AAF-Glo activity,MCF-7 cells,significant increase
same,relative AAF-Glo activity,MCF-10A cells,did not cause an increase
same,relative AAF-Glo activity,MDA-MB-231 cells,did not have increased AAF-Glo activity
same,relative AAF-Glo activity,PE1008032 cells,did not have increased AAF-Glo activity
same,relative AAF-Glo activity,[1],significant increase
same,"viability difference, normal minus tumor cells (selectivity) at 4 days, 20 µM",[2],62%
same,caspase activity,"caspase-3/7, -8 or -9",did not induce significant caspase activity
